These are literature values, as cited in patent publication US20140017301A1, “DRUG-FREE COMPOSITIONS AND METHODS FOR DIMINISHING PERIPHERAL INFLAMMATION AND PAIN” (priority 2011, published 2014).

The conditions of this data set: excipients of Table 3.
Take `O=c1[nH]sc2ccccc12` [1,2-benzothiazol-3-one]: the “log P” value was 1.08.

For `CC1(C)C(=O)N(CO)C(=O)N1CO` [1,3-Dimethylol-5,5-dimethylhydantoin], the “log P” value is 0.6.

Consider `Cc1cc(O)c(C)c(C)c1O` [2,3,5-trimethylbenzene-1,4-diol], for which the “log P” value is 2.12.

Take `O=C(O)CNCO` [2-(hydroxymethylamino)acetic adic]: the “log P” value is −2.2.

On to `Cn1sccc1=O` [2-methyl-1,2-thiazol-3-one], for which the “log P” value was −0.06.

`OCC(O)CS` (stereo not shown) [3-sulfanylpropane-1,2-diol]: the “log P” value was −0.57.

For `CCCCCCOc1cc(C)c(O)c(C)c1C` [4-hexoxy-2,3,6-trimethylphenol, HTHQ, 4-hexoxy-2,3,6-trimethylphenol], the “log P” value was 4.81.

On to `O=[N+]([O-])C1(Br)COCOC1` [5-Bromo-5-nitro-1,3-dioxane, bronidox, 5-Bromo-5-nitro-1,3-dioxane], for which the “log P” value is on record as 0.44.

Regarding `Cc1ccc(C(C)C)c(O)c1` [6-isopropyl-m-cresol; thymol, 6-isopropyl-m-cresol], the “log P” value is reported as 3.21.

With `CC(=O)OC1CC(C)OC(C)O1` (stereo not shown) [(2,6-dimethyl-1,3-dioxan-4-yl) acetate], the “log P” value was 0.87.

As to `OCc1ccccc1` [Benzyl alcohol], the “log P” value is 1.23.

For `CCCCOC(=O)c1ccc(O)cc1` [Butyl 4-hydroxybenzoate; butylparabene, Butyl 4-hydroxybenzoate], the “log P” value is on record as 3.07.

As for `COc1ccc(O)c(C(C)(C)C)c1` [Butylated hydroxyanisole, BHA, Butylated hydroxyanisole], the “log P” value is 3.13.

Take `CC(=O)C1C(=O)C=C(C)OC1=O` (stereo not shown) [Dehydroacetic acid]: the “log P” value was −0.05.

For the molecule `O=C1C(N(CO)C(=O)NCO)N(CO)C(=O)N1CO` (stereo not shown) [Diazodinyl Urea (Germall II), Diazodinyl Urea], the “log P” value is reported as −3.2.

Take `CCOC(=O)c1ccc(O)cc1` [Ethyl 4-hydroxybenzoate; ethylparabene, Ethyl 4-hydroxybenzoate]: the “log P” value is 2.16.

For the molecule `COC(=O)c1ccc(O)cc1` [Methyl 4-hydroxybenzoate; methylparabene, Methyl 4-hydroxybenzoate], the “log P” value was 1.72.

Regarding `OCCOc1ccccc1` [Phenoxyethanol], the “log P” value was 1.26.

Regarding `OCCc1ccccc1` [Phenylethanol], the “log P” value is 1.61.

`CCCOC(=O)c1ccc(O)cc1` [Propyl 4-hydroxybenzoate; propylparabene, Propyl 4-hydroxybenzoate]: the “log P” value is recorded as 2.63.

On to `C/C=C/C=C/C(=O)O` [Sorbic acid], for which the “log P” value is recorded as 1.38.

For the molecule `NC(N)=S` [Thiourea], the “log P” value is on record as −0.96.

On to Benzalkonium, for which the “log P” value is 3.67.

For Propanediol, the “log P” value is recorded as −0.71.

In the case of Tocopherol, the “log P” value is on record as 9.76.
